The values that follow come from patent publication US20150119363A1, “METHODS OF TREATING BACTERIAL INFECTIONS” (Rampex Pharmaceuticals, Inc., priority 2012, published 2015).

Molecules are shown by their SMILES.

What all share (assay): Dose titration biapenem potentiation assay (MPC1)
Common to all, as to conditions: biapenem 1 μg/mL

One test relates to ECL1004 NMC-A. In kind it is cell-based, Enterobacter cloacae. How it is done:
(§1) The potency and spectrum of β-lactamase inhibitors is also determined by assessing their biapenem potentiation activity in a dose titration potentiation assay using strains expressing serine carbapemenases (such as KPC). The potentiation effect is observed as the ability of BLI compounds to inhibit growth in the presence of sub-inhibitory concentration of biapenem. […] Biapenem is present in the test medium at 1 μg/mL. Compounds tested at the highest concentration of 40 μg/mL. […] Table 5 summarizes BLI potency of biapenem potentiation (MPC1). Biapenem MIC for each strain is also shown.

Another test deals with KP1008 KPC-2. The class given is cell-based, Klebsiella pneumoniae. As to the method: as §1
The next test relates to KP1004 KPC-2. The class given is cell-based, Klebsiella pneumoniae. How it is done:
as §1

The test system of a further test is EC1007 KPC-3. The class given is cell-based, Escherichia coli. As to the method: as §1

Take `N[C@H](C(=O)N[C@H]1CC[C@@H](CC(=O)O)OB1O)c1ccccc1` [Compound 33, 2-((3R,6S)-3-((S)-2-amino-2-phenylacetamido)-2-hydroxy-1,2-oxaborinan-6-yl)acetic acid]: the “BPM MPC1 ECL1004 NMC-A” value in the test on ECL1004 NMC-A was “X (X = MPC1 of less than 1 μg/mL.)”. Also, the “BPM MPC1 KP1008 KPC-2” value in the test on KP1008 KPC-2 is “X (X = MPC1 of less than 1 μg/mL.)”. Besides, the “BPM MPC1 KP1004 KPC-2” value with KP1004 KPC-2 was “X (X = MPC1 of less than 1 μg/mL.)”. In the test with EC1007 KPC-3, the “BPM MPC1 EC1007 KPC-3” value is on record as “X (X = MPC1 of less than 1 μg/mL.)”.

Consider `NCCC(=O)N[C@H]1CC[C@@H](CC(=O)O)OB1O` [Compound 34, 2-((3R,6S)-3-(3-aminopropanamido)-2-hydroxy-1,2-oxaborinan-6-yl)acetic acid], for which the “BPM MPC1 ECL1004 NMC-A” value with ECL1004 NMC-A is recorded as “Y (Y = MPC1 of 1 μg/mL to 5 μg/mL.)”. Also, in the test with KP1008 KPC-2, the “BPM MPC1 KP1008 KPC-2” value was “X (X = MPC1 of less than 1 μg/mL.)”. In addition, the “BPM MPC1 KP1004 KPC-2” value in the test with KP1004 KPC-2 was “X (X = MPC1 of less than 1 μg/mL.)”. In the test with EC1007 KPC-3, the “BPM MPC1 EC1007 KPC-3” value is recorded as “X (X = MPC1 of less than 1 μg/mL.)”.

In the case of `N[C@@H](CCC(=O)N[C@H]1CC[C@@H](CC(=O)O)OB1O)C(=O)O` [Compound 35, (S)-2-amino-5-((3R,6S)-6-(carboxymethyl)-2-hydroxy-1,2-oxaborinan-3-ylamino)-5-oxopentanoic acid], the “BPM MPC1 ECL1004 NMC-A” value in the test with ECL1004 NMC-A was “Y (Y = MPC1 of 1 μg/mL to 5 μg/mL.)”. For the same molecule, the “BPM MPC1 KP1008 KPC-2” value in the test on KP1008 KPC-2 was “X (X = MPC1 of less than 1 μg/mL.)”. Moreover, in the test on KP1004 KPC-2, the “BPM MPC1 KP1004 KPC-2” value was “X (X = MPC1 of less than 1 μg/mL.)”. Further, in the test on EC1007 KPC-3, the “BPM MPC1 EC1007 KPC-3” value is “X (X = MPC1 of less than 1 μg/mL.)”.

As for `CC(C)(O/N=C(\C(=O)N[C@H]1CC[C@@H](CC(=O)O)OB1O)c1csc(N)n1)C(=O)O` [Compound 36, 2-((Z)-1-(2-aminothiazol-4-yl)-2-((3R,6S)-6-(carboxymethyl)-2-hydroxy-1,2-oxaborinan-3-ylamino)-2-oxoethylideneaminooxy)-2-methylpropanoic acid], the “BPM MPC1 ECL1004 NMC-A” value in the test on ECL1004 NMC-A is “X (X = MPC1 of less than 1 μg/mL.)”. The “BPM MPC1 KP1008 KPC-2” value with KP1008 KPC-2 is reported as “X (X = MPC1 of less than 1 μg/mL.)”. For the same molecule, the “BPM MPC1 KP1004 KPC-2” value in the test with KP1004 KPC-2 is “Z (Z = MPC1 of greater than 5 μg/mL.)”. Further, the “BPM MPC1 EC1007 KPC-3” value with EC1007 KPC-3 was “Y (Y = MPC1 of 1 μg/mL to 5 μg/mL.)”.

`O=C(O)C[C@@H]1CC[C@H](NC(=O)c2ccccc2)B(O)O1` [Compound 37, 2-((3R,6S)-3-benzamido-2-hydroxy-1,2-oxaborinan-6-yl)acetic acid]: the “BPM MPC1 ECL1004 NMC-A” value in the test with ECL1004 NMC-A is “X (X = MPC1 of less than 1 μg/mL.)”. In addition, in the test with KP1008 KPC-2, the “BPM MPC1 KP1008 KPC-2” value is “X (X = MPC1 of less than 1 μg/mL.)”. In addition, in the test with KP1004 KPC-2, the “BPM MPC1 KP1004 KPC-2” value is on record as “X (X = MPC1 of less than 1 μg/mL.)”. For the same molecule, the “BPM MPC1 EC1007 KPC-3” value with EC1007 KPC-3 was “X (X = MPC1 of less than 1 μg/mL.)”.

`O=C(O)C[C@@H]1CC[C@H](NC(=O)c2cn(C3CC3)c3cc(N4CCNCC4)c(F)cc3c2=O)B(O)O1` [Compound 58, 2-((3R,6S)-3-(1-cyclopropyl-6-fluoro-4-oxo-7-(piperazin-1-yl)-1,4-dihydroquinoline-3-carboxamido)-2-hydroxy-1,2-oxaborinan-6-yl)acetic acid]: the “BPM MPC1 ECL1004 NMC-A” value with ECL1004 NMC-A was “Z (Z = MPC1 of greater than 5 μg/mL.)”. Moreover, in the test on KP1008 KPC-2, the “BPM MPC1 KP1008 KPC-2” value is recorded as “Z (Z = MPC1 of greater than 5 μg/mL.)”. In addition, in the test with KP1004 KPC-2, the “BPM MPC1 KP1004 KPC-2” value is reported as “Z (Z = MPC1 of greater than 5 μg/mL.)”.

In the case of `Nc1cc(CC(=O)N[C@H]2CC[C@@H](CC(=O)O)OB2O)ccn1` [Compound 61, 2-((3R,6S)-3-(2-(2-aminopyridin-4-yl)acetamido)-2-hydroxy-1,2-oxaborinan-6-yl)acetic acid], the “BPM MPC1 ECL1004 NMC-A” value in the test with ECL1004 NMC-A is “X (X = MPC1 of less than 1 μg/mL.)”. Moreover, in the test on KP1008 KPC-2, the “BPM MPC1 KP1008 KPC-2” value is “X (X = MPC1 of less than 1 μg/mL.)”. Besides, in the test with KP1004 KPC-2, the “BPM MPC1 KP1004 KPC-2” value was “X (X = MPC1 of less than 1 μg/mL.)”.
